Measured values from PubChem BioAssay AID1902 (Broad Institute, 2009).
Calls of active or inactive are those of the source.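 The calls were made as follows: active = EC50 no more than a set limit of log units above the highest dose; inactive = the rest.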

Each compound was assayed against S. pyogenes SKKanGAS, kanamycin survival, BacTiterGlo, 6 h (assay: S. pyogenes SKKanGAS kanamycin growth inhibitors – SKKanGAS strain, luminescence, dose confirmation, streptokinase promoter inhibitor project, dose response (AID 1902);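 also: lower survival reflects blocked streptokinase promoter driving kanamycin resistance gene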).
In the case of `COc1cc(/C=C2\SC(=Nc3ccccc3)N(CCc3c[nH]c4ccccc34)C2=O)ccc1OC(C)C(=O)O` (centres undefined), the EC50 is reported as 1.42 µM.
For `COc1ccc(NC(=O)c2ccc3c(c2)NC(=O)CS3)cc1S(=O)(=O)Nc1ccc(Br)cc1`, the EC50 was 3.38 µM.
`Cc1ccc(C(=O)NNC2=Nc3cccc4cccc2c34)cc1` showed an EC50 of 3.14 µM.
In the case of `CC(C)(C)c1cc(Cl)c(O)c(NC(=S)NC(=O)c2cccnc2)c1`, the EC50 is reported as 0.346 µM.
With `Nc1nc(-c2ccccn2)nc(N)c1Cc1ccccc1F` the EC50 was 15.3 µM.
Compound `CN1Cc2cc(C(=O)c3cc(Cl)cc(CSc4ncccn4)c3O)cnc2NC1=O` has an EC50 of 9.39 µM.
With `COc1ccc(O)c(/C=N/Nc2nc(Nc3ccccc3)nc(-n3nc(C)cc3C)n2)c1` the EC50 was 0.868 µM.
`Cc1cc(NC(=O)c2cnccn2)no1` was tested, and the EC50 was > 15 µM (inactive).
With `Cc1cc(Cl)c2oc(C(=O)N3CCN(C(=O)c4ccco4)CC3)c(C)c2c1` the EC50 was 4.45 µM.
Work on `COc1ccc2ncc(S(=O)(=O)c3ccccc3)c(N3CCN(c4ccccc4)CC3)c2c1` yielded an EC50 of 3.19 µM.
For `Cc1ccc(-c2nn(-c3ccccc3)cc2/C=N/NC(=O)CSc2nnc(C)n2-c2ccccc2)cc1`, the EC50 was 9.84 µM.
For `Cc1cccc(NC(=O)c2cc3n(n2)C(C(F)(F)F)CC(c2ccc4c(c2)OCO4)N3)c1` (centres undefined), the EC50 was 7.23 µM.
Compound `COc1ccc(C(=O)NC(=S)NNC(=O)c2ccc(C)cc2)cc1` has an EC50 of 0.137 µM.
Compound `C=CCn1c(COc2ccccc2)nnc1SC(C)C(=O)N/N=C/c1cc(Cl)ccc1O` (centres undefined) has an EC50 of 1.7 µM.
`C=C1c2cccc(O)c2C(O)=C2C(=O)[C@]3(O)C(O)=C(C(N)=O)C(=O)[C@@H](N(C)C)[C@@H]3[C@@H](O)[C@H]12` was tested, and the EC50 was 0.093 µM.
For `CC(C)(C)c1nnc(N/N=C/c2cc(Br)ccc2O)n(N)c1=O`, the EC50 was 2.12 µM.
For `O=C(O)c1cccc(N/N=C/C2=C(Cl)c3cc(Cl)ccc3SC2)c1`, the EC50 was 1.77 µM.
Work on `O=C(N[C@H](CO)[C@H](O)c1ccc([N+](=O)[O-])cc1)C(Cl)Cl` yielded an EC50 of 0.973 µM.
In the case of `O=[N+]([O-])c1ccc(O)c(/C=N/Nc2ccc(Cl)nn2)c1`, the EC50 is reported as 0.252 µM.
`C#CCN1C(=O)S/C(=C\c2ccc(-c3ccc(Cl)c(C(=O)O)c3)o2)C1=O` gave an EC50 of 2.83 µM.
With `CC(/C=C/C=C/c1ccccc1)=N/NC(=O)c1ccc2c(c1)OCCO2` the EC50 was > 15 µM (inactive).
For `CCCCN(CCCC)c1nc(-c2ccncc2)nc2ccccc12`, the EC50 was 4.24 µM.
With `Cc1ccc(S(=O)(=O)NCC(=O)OCC(=O)N2N=C(c3ccc(Cl)cc3)CC2c2ccco2)cc1C` (centres undefined) the EC50 was 8.17 µM.
For `Cc1ccc(C)c(C(=O)COC(=O)c2cc(Cl)nc3ccccc23)c1`, the EC50 was 10.9 µM.
`O=C(NCc1ccccn1)C(=O)Nc1nc(C23CC4CC(CC(C4)C2)C3)cs1` gave an EC50 of 1.65 µM.
Compound `Cc1ccc(-c2[nH]nc(N)c2N=Nc2ccccc2C)cc1` has an EC50 of 1.07 µM.
With `COc1cc(C(=O)NNC(=S)NC(=O)c2ccccc2C)cc(OC)c1OC` the EC50 was 1.88 µM.
`CCCCn1c(CCCNC(=O)c2ccco2)nc2ccccc21` was tested, and the EC50 was > 15 µM (inactive).
With `COc1ccc(NC(C)C(=O)N/N=C/c2c(O)ccc3ccccc23)cc1` (centres undefined) the EC50 was 1.14 µM.
In the case of `CC(C)=CCc1c2c(c(O)c3c(=O)c4c(oc13)-c1cc(O)c(O)cc1OC4C=C(C)C)C=CC(C)(C)O2` (centres undefined), the EC50 is reported as 1.88 µM.
For `CCn1c(NC(=O)c2cccc(Cn3cc(Cl)cn3)c2)nc2ccccc21`, the EC50 was 1.02 µM.
`Cc1cc(C)c2ccc(NN)nc2c1O` showed an EC50 of 6.08 µM.
`C=C(C)CNC(=S)NNC(=O)CCn1c2ccc(Cl)cc2c2cc(Cl)ccc21` showed an EC50 of 2.31 µM.
In the case of `C/C(N)=C(/C#N)C(=O)CSc1nc2cc(Cl)ccc2c(=O)n1Cc1ccco1`, the EC50 is reported as 8.74 µM.
`COc1ccc(/C=N\NC(=O)c2cc(O)c(O)c(O)c2)cc1COc1ccc(C(=O)OCC(C)C)cc1` gave an EC50 of 7.28 µM.
`COc1cccc(NC(=O)Nc2nc(SC(C)(C)C)ns2)c1` showed an EC50 of 8.16 µM.
In the case of `O=[N+]([O-])c1ccc(-c2nc(Nc3cccc(O)c3)c3ccccc3n2)cc1`, the EC50 is reported as 10.7 µM.
`Cc1cc(C)c2[nH]c(O)c(N=Nc3ccc(C(=O)O)cc3)c2c1` gave an EC50 of 1.8 µM.
For `Cc1ccc(C23CC4CC(CC(C(=O)N5CCN(C)CC5)(C4)C2)C3)cc1`, the EC50 was > 15 µM (inactive).
Work on `COCCCn1c(=O)/c(=C\c2ccccc2OC(C)C)s/c1=C(/C#N)C(=O)Nc1ccc(C(=O)O)cc1` yielded an EC50 of 2.02 µM.
`O=C1c2cccc3c([N+](=O)[O-])ccc(c23)C(=O)N1O` gave an EC50 of 1.16 µM.
Work on `Cc1cc(Nc2ccccc2)n(-c2nc3ccccc3[nH]2)n1` yielded an EC50 of 2.1 µM.
In the case of `COc1cc(/C=C2/SC(=S)N(Cc3ccccc3)C2=O)ccc1O`, the EC50 is reported as 5.8 µM.
`Cc1nc(N)sc1-c1csc(N(C)c2ccc(O)cc2)n1` gave an EC50 of 3.57 µM.
With `CC(NC(=O)Cn1c(=O)[nH]c2ccsc2c1=O)C12CC3CC(CC(C3)C1)C2` (centres undefined) the EC50 was > 15 µM (inactive).
With `Cc1nnc(SCC2=C(C(=O)O)N3C(=O)C(NC(=O)C(C)n4nc(C(F)(F)F)cc4C)C3SC2)s1` (centres undefined) the EC50 was 0.14 µM.
`O[C@@H]1CCCN2CCc3c([nH]c4ccccc34)[C@H]12` was tested, and the EC50 was > 15 µM (inactive).
`COc1cccc(NCc2cc(=O)oc3cc(C)c(O)cc23)c1` was tested, and the EC50 was 1.85 µM.
In the case of `O=C(O)CN1C(=O)/C(=C\c2cc(Br)ccc2OCc2ccccc2Cl)SC1=S`, the EC50 is reported as 2.08 µM.
Compound `Nc1ncc(Br)cc1S(=O)(=O)Nc1cc(C(F)(F)F)cc(C(F)(F)F)c1` has an EC50 of 6.39 µM.
Work on `O=C(NNC(=O)c1cc(-c2ccc(Cl)c(Cl)c2)nc2ccccc12)Nc1ccccc1` yielded an EC50 of 4.83 µM.
`CN(c1ccccc1)c1nc(N2CCCC2)nc(-n2ccnc2)n1` gave an EC50 of 10.8 µM.
`Cc1cccc(OCC(=O)Nc2ccc(C(=O)Nc3ccccc3C(=O)O)cc2)c1C` showed an EC50 of 2.41 µM.
Compound `O=C(Cn1nc2ccccc2n1)N/N=C/c1cc([N+](=O)[O-])ccc1O` has an EC50 of 0.73 µM.
`COc1ccc2oc(=O)c(-c3csc(Nc4ccc(O)cc4)n3)cc2c1` gave an EC50 of 2.16 µM.
With `COc1ccc(C(=O)c2c(C(F)(F)F)oc3c2C(=O)c2ccccc2C3=O)cc1` the EC50 was 1.99 µM.
For `CCc1c(C)sc2nc(C(C)C)nc(SCC(=O)N3CCc4ccccc4C3)c12`, the EC50 was 7.89 µM.
For `Cc1nc(Nc2cnc(/C=C/c3cc(C(=O)Nc4cccc(C(F)(F)F)c4)ccc3C)cn2)cc(N2CCNCC2)n1`, the EC50 was 6.36 µM.
Compound `CCn1c(=O)n(CC)c2cc(N3CCCC3)c(NC(=O)c3cc(Br)ccc3OC)cc21` has an EC50 of 4.28 µM.
In the case of `O=S(=O)(NCc1nnc2c(C(F)(F)F)cc(Cl)cn12)c1ccccc1`, the EC50 is reported as > 15 µM (inactive).
Compound `Oc1c(C(c2ccc(Cl)cc2)N2CCCC2)cc(Cl)c2cccnc12` (centres undefined) has an EC50 of 1.53 µM.
`O=C(Nc1nc2ccc(SC(F)F)cc2s1)c1ccc(NS(=O)(=O)c2ccc(F)c(F)c2)cc1` gave an EC50 of 1.89 µM.
`CC(C)c1c(C(=O)N/N=C/c2cccc(OCc3ccc(F)cc3)c2)nnn1-c1nonc1N` showed an EC50 of 5.19 µM.
`O=C(CSc1nc2c(cnn2-c2ccccc2)c(=O)[nH]1)N1N=C(c2cccs2)CC1c1ccc(F)cc1` (centres undefined) was tested, and the EC50 was 1.62 µM.
With `CCc1ccc(S(=O)(=O)/N=C2\C=C(Nc3ccc(C(=O)O)cc3)C(=O)c3ccccc32)cc1` the EC50 was 0.444 µM.
In the case of `CCC(=O)NC(=S)Nc1ccc(NC(=S)NC(=O)c2ccccc2)cc1`, the EC50 is reported as 0.805 µM.
`COc1ccc(Cn2c(SCc3ccc(C)cc3)nc3cc(OC)c(OC)cc3c2=N)cc1Cl` gave an EC50 of 2.65 µM.
`CC1CCN(Cc2c(C(=O)N/N=C/c3cc(Br)ccc3O)nnn2-c2nonc2N)CC1` gave an EC50 of 10.2 µM.
`N#C/C(=N\Nc1ccc(S(=O)(=O)N2CCc3ccccc32)cc1)C(N)=S` gave an EC50 of 11.3 µM.
`Cc1ccc(N(C)S(=O)(=O)c2cccc(C(=O)Nc3nc4ccccc4[nH]3)c2)cc1` was tested, and the EC50 was 1 µM.
In the case of `Cc1cc2nc(CSc3ccccc3)cc(=O)n2[nH]1`, the EC50 is reported as 3.82 µM.
For `Cc1cccc(OCC(=O)Nc2ccncc2)c1`, the EC50 was > 15 µM (inactive).
For `COc1cccc(C(=O)Nc2nnc(-c3cccs3)o2)c1`, the EC50 was 3.34 µM.
For `CCc1ccc(C2C(C#N)=C(N)C(C#N)(C#N)C3=CCC(C(C)(C)C)CC32)cc1` (centres undefined), the EC50 was 5.18 µM.
In the case of `Cc1nn(-c2ccccc2)c(Cl)c1/C=N/NC(=O)c1ccc(NS(=O)(=O)c2cccs2)cc1`, the EC50 is reported as 2.34 µM.
Compound `Cc1ccc(OCCn2c(=S)[nH]c3ccccc32)c(C(C)C)c1` has an EC50 of 2.13 µM.
`Cc1ccc2nc(-c3ccc(NS(=O)(=O)c4ccc(F)cc4)cc3)sc2c1` gave an EC50 of 3.31 µM.
`Clc1ccc(-c2nnnn2-c2ccc(Cl)c(Cl)c2)cc1Cl` was tested, and the EC50 was 8.09 µM.
`O=C(NCC1(N2CCCCC2)CCCCC1)c1cccc(NS(=O)(=O)c2ccccc2)c1` was tested, and the EC50 was > 15 µM (inactive).
With `O=C(CN1c2ccccc2Sc2ccccc21)NNC(=O)Nc1cccc(Cl)c1` the EC50 was 4.97 µM.
In the case of `O=C(Cc1ccccc1)N/N=C/c1cc(Br)cc(Cl)c1O`, the EC50 is reported as 1.52 µM.
With `Cc1cccc(CSc2ncnc3c2cnn3Cc2ccccc2)c1` the EC50 was 4.58 µM.
`Cc1ccc2nc(N/C(=N/S(=O)(=O)c3ccc(F)cc3)c3ccccc3)sc2c1` showed an EC50 of 6.17 µM.
For `CC1CCN(c2ccccc2NC(=O)c2ccc(Br)o2)CC1`, the EC50 was 5.29 µM.
For `Cc1cc(C(=O)OC(C(=O)Nc2cccc(C(F)(F)F)c2)c2ccccc2)c(C)o1` (centres undefined), the EC50 was 10.1 µM.
In the case of `CN1c2ccccc2C(C)(C)C12C=Nc1c(ccc3ccccc13)O2` (centres undefined), the EC50 is reported as 2.16 µM.
With `CCc1ccc2[nH]c(=O)c(C3C(C#N)=C(N)Oc4c3ccc3cccnc43)cc2c1` (centres undefined) the EC50 was 1.63 µM.
Compound `CC(C)(C)c1ccc(C(=O)NC(=S)NNC(=O)COc2ccccc2)cc1` has an EC50 of less than 0.06 µM.
Compound `CCCCNc1c(-c2ccc(OC)c(SC3CCCCC3)c2)nc2cnccn12` has an EC50 of 3.62 µM.
Compound `CCC[C@@H]1C[C@@]1(CCC)[C@@H](NP(=O)(c1ccccc1)c1ccccc1)c1ccc(C(=O)OC)cc1` has an EC50 of 2.14 µM.
`CCOc1ccc(/C=C2/Sc3ccc(C(=O)N4CCN(C(=O)c5ccco5)CC4)cc3N(C)C2=O)cc1OC` gave an EC50 of 4.19 µM.
`CN1C(=O)/C(=C\c2ccccc2F)Sc2ccc(C(=O)NC3CCN(Cc4ccccc4)CC3)cc21` showed an EC50 of 6.22 µM.
Work on `Nc1nc(-c2ccccn2)nc(N)c1Cc1ccc(Cl)cc1Cl` yielded an EC50 of 5.03 µM.
With `O=C1C2C(c3ccccc3)=NN(c3ccccc3)C2C(=O)N1c1ccccc1` (centres undefined) the EC50 was 0.704 µM.
For `Cc1ccc(N=N/C(=C\O)C(=O)c2ccc(Cl)cc2)cc1`, the EC50 was 8.59 µM.
In the case of `CN(C)c1ccc(C2C=C(c3ccc(Cl)cc3OC(F)F)Nc3ncnn32)cc1` (centres undefined), the EC50 is reported as 10.8 µM.
With `COc1ccccc1NC(=O)NCCCCc1ccccc1` the EC50 was > 15 µM (inactive).
`Cc1c(Cl)cccc1NC(=S)NCCC(c1ccccc1)c1ccccc1` was tested, and the EC50 was 9.25 µM.
In the case of `c1ccc2sc(SCSc3nc4ccccc4s3)nc2c1`, the EC50 is reported as 2.86 µM.
With `COc1cccc(/C=N/Nc2nc(Nc3ccccc3)nc(-n3nc(C)cc3C)n2)c1O` the EC50 was 1.97 µM.
Compound `S=c1[nH]nc(C2CCCCC2)n1/N=C/c1cccc(Cl)c1Cl` has an EC50 of 5.59 µM.
`O=C(NC(Cc1c[nH]c2ccccc12)C(=O)N/N=C/c1cccc2ccccc12)c1cccs1` (centres undefined) was tested, and the EC50 was 5.37 µM.
With `CCOC(=O)c1sc(NC(=O)c2cc(-c3ccccc3C)nc3ccccc23)c(C#N)c1C` the EC50 was 1.36 µM.
`COc1ccc(OC)c(/C=C/c2ccc3cccc(O)c3n2)c1` was tested, and the EC50 was 0.197 µM.
